Measured values taken from PMC9861092, “Napyradiomycin A4 and Its Relate Compounds, a New Anti-PRV Agent and Their Antibacterial Activities, from Streptomyces kebangsaanensis WS-68302” (Molecules, 2023).
Values after ≈ are worked out from the molar mass of the structure shown. “Also recorded” adds a separate entry of the source. Where a name gives a salt, the structure may show the parent alone.

Legend:
[1] = in vitro; details: African green monkey
[2] = test system: Streptococcus suis SC19; test: microbe, parasite or virus in culture; assay type: cell-based; details: for MIC: Streptococcus suis, SC19, read-out: MIC S. suis
[3] = test system: PRV (Pseudorabies virus)
[4] = test system: Erysipelothrix rhusiopathiae WH13013; test: microbe, parasite or virus in culture; assay type: cell-based; details: for MIC: Erysipelothrix rhusiopathiae, WH13013, read-out: MIC E. rhusiopathiae
[5] = test system: Staphylococcus aureus ATCC 25923; test: microbe, parasite or virus in culture; assay type: cell-based; details: for MIC: Staphylococcus aureus, ATCC25923, read-out: MIC S. aureus
[6] = test system: PRV (Pseudorabies virus); test: microbe, parasite or virus in culture; details: Suid alphaherpesvirus 1, MARC145, 72 h, read-out: IC50 against PRV
[7] = test system: PRV protein; assay type: cell-based, Pseudorabies virus
[8] = test system: Escherichia coli ATCC 25922; assay type: cell-based
[9] = test system: Bacillus subtilis ATCC6633; details: cited from earlier work

| Structure (SMILES) | CC50 [1] [µM] | MIC S. suis [2] | IC50 against PRV [3] | MIC E. rhusiopathiae [4] | MIC S. aureus [5] | IC50 [6] [µM] | Suppression of PRV protein (green fluorescence intensity) in indirect immunofluorescence assay [7] | MIC [2] [µg/mL] | TI (therapeutic index = CC50/IC50) [3] | MIC [4] [µg/mL] | MIC [5] [µg/mL] | MIC E. coli [8] [µg/mL] | MIC against Bacillus subtilis ATCC6633 [9] [µg/mL] |
| --- | --- | --- | --- | --- | --- | --- | --- | --- | --- | --- | --- | --- | --- |
| CC(C)=CCC12OC1(CC=C(C)C(O)CC=C(C)CO)C(=O)c1cc(O)cc(O)c1C2=O (stereo not shown) [Compound 2, A80915H] | > 90 | did not show any activity and - | did not display any apparent anti-PRV activity | did not show any activity and - | did not show any activity and - | > 90 |  |  |  |  |  |  |  |
| CC(C)=CCC/C(C)=C/C[C@@]12OC(C)(C)[C@H](Cl)C[C@]1(Cl)C(=O)c1c(O)cc(O)cc1C2=O [Compound 3, napyradiomycin A1] | 5.79 ± 0.708 |  |  | 50 µg/mL (≈ 104 µM) | potent activities | 2.21 ± 0.375 | significantly suppressed | 3.12 (≈ 6.49 µM) | 2.62 | 25 to 50 (≈ 51.9 to 104 µM) | < 0.78 |  |  |
| CO/N=C(\C(=O)N[C@@H]1C(=O)N2C(C(=O)[O-])=C(C[n+]3cccc4c3CCC4)CS[C@H]12)c1csc(N)n1.O=S(=O)(O)O [Cefpirome Sulfate, cefpirome sulfate, reference compound] |  | <0.78 µg/mL |  | <0.78 µg/mL | <0.78 µg/mL |  |  |  |  |  |  | 25 |  |
| CC(C)=CCC/C(C)=C/C[C@@]12O[C@]1(CC=C(C)C)C(=O)c1c(O)cc(O)cc1C2=O [Compound 5, A80915G] | 16.7 ± 1.12 |  |  | 25 µg/mL (≈ 60.9 µM) |  | 8.26 ± 0.902 |  | 25 (≈ 60.9 µM) | 2.05 | 25 to 50 (≈ 60.9 to 122 µM) |  |  |  |
| CC(C)=CCC/C(C)=C/C[C@]1(O)C(=O)c2cc(O)cc(O)c2C(=O)[C@@]1(Cl)CC=C(C)C [Compound 7, naphthomevalin] | > 0.045 |  | did not display any apparent anti-PRV activity |  | potent activities | > 90 |  | 20 (≈ 44.7 µM) |  | 40 (≈ 89.5 µM) | < 0.625 |  |  |
| C=C1CC[C@H](Cl)C(C)(C)C1C[C@@]12OC(C)(C)[C@H](Cl)C[C@]1(Cl)C(=O)c1c(O)cc(O)cc1C2=O (stereo partly shown) [Compound 4, napyradiomycin B1] | 19.6 ± 2.82 |  |  | 50 µg/mL (≈ 96.9 µM) | potent activities | 13.3 ± 1.11 | significantly suppressed | 6.25 (≈ 12.1 µM) |  | 25 to 50 (≈ 48.5 to 96.9 µM) | < 0.78 |  |  |
| CC1(C)S[C@@H]2[C@H](NC(=O)Cc3ccccc3)C(=O)N2[C@H]1C(=O)O [Penicillin G, Penicillin G sodium salt, reference compound] |  |  |  |  |  |  |  | 12.5 |  | 50 |  |  |  |
| NC(=O)c1ncn([C@@H]2O[C@H](CO)[C@@H](O)[C@H]2O)n1 [Ribavirin, reference compound] | > 164 |  |  |  |  | 58 |  |  | >2.82 |  |  |  |  |
| CC(C)=CC[C@]12O[C@@]1(C/C=C(\C)CC/C=C(\C)C(=O)O)C(=O)c1cc(O)cc(O)c1C2=O [Compound 6, A80915G-8″-acid] | 46.3 ± 7.36 |  |  | 25 µg/mL (≈ 56.8 µM) |  | 26.5 ± 5 |  | 50 (≈ 114 µM) |  | 25 to 50 (≈ 56.8 to 114 µM) | 50 (≈ 114 µM) |  | 64 (≈ 145 µM) |
| CC(=CCC12OC(C)(C)C(Cl)CC1(Cl)C(=O)c1c(O)cc(O)cc1C2=O)CCC(=O)C(C)C (stereo not shown) [Compound 1, napyradiomycin A4] | 30.8 ± 5.57 | weak activity |  | 50 µg/mL (≈ 101 µM) |  | 2.06 ± 0.343 | strongest inhibition; also recorded: significantly suppressed | 100 (≈ 201 µM) | 14.98 | 25 to 50 (≈ 50.3 to 101 µM) | 25 (≈ 50.3 µM) |  |  |
